What was measured:
[1] = tested on: Arabidopsis thaliana; experiment: Effect on the root proliferation of Arabidopsis thaliana; format: in vivo, Arabidopsis thaliana (ecotype Columbia); details: for Concentration with highest activity: number of lateral roots; for Activity (%) [10^-8 mol.l^-1 Kin = 100%]: number of lateral roots (% of control), at concentration with highest activity
Protocol: Arabidopsis thaliana seeds (ecotype Columbia) were sterilized with 70% ethanol and 0.1% Triton X-100 and then washed with 70% ethanol containing 0.01% Triton X-100. Then the seeds were transferred to vertical square petri dishes (11 seeds per dish) on a solid medium consisting of MS (2.15 g/l), MES (0.5 g/l), sucrose (1 g/l), agar (11 g/l), buffered to pH 5.8, and various concentrations of tested compounds. The compounds were dissolved in DMSO, thus 0.05% DMSO was used as a control solution. After incubation for 3 days in darkness at 4°C, the seeds were germinated and grown in an environmental chamber (fluorescence light intensity 150 µE m^-2 s^-1, humidity 55%, 16 h day/8 h night, 22°C). […] The number of lateral roots was scored under a stereomicroscope. […] In addition, compounds with tetrahydropyranyl protection at N9 slightly increase the number of emerged lateral roots (Fig 3C). […] Table 6: […]

[2] = Calcein AM cytotoxicity assay, NIH3T3 cells; details: mouse; for CC50 at 72 h: nih3t3 cells
Protocol: (§1) All compound concentrations were examined in duplicates. […] Zero cytotoxicity is a basic prerequisite for the use of these substances in cosmetical applications. To assess the antitumor activity, the toxicity of new derivatives on panels containing cell lines of different histogenic and species origin was tested (Table 5). […] The compounds listed in Table 5 can be divided into 2 groups.
(§2) The first group contains "classical cytokinins" represented by 6-substituted purines (their effects are already known). The second group includes novel 2-fluoro-N6-substituted-9-(2-oxacycloalkyl)-9H-purine-6-amine derivatives. […] Low cytotoxicity (high IC50 value) of the compounds is the basic prerequisite for cosmetic and medical applications. […] Table 5: Cytotoxicity of novel compounds for different normal cell lines tested / IC50 (µmol/L)

[3] = tested on: excised wheat leaf tips; experiment: Senescence inhibition on winter wheat leaf segments (chlorophyll retention); parameters: species or system Triticum aestivum cv. Hereward; details: for Concentration with highest activity: retention of chlorophyll; for Activity (%) [10^-4mol.l^-1 KTHP = 100%] / Emax: retention of chlorophyll in excised wheat leaf tips, 96 h in the dark, at concentration with highest activity; for Emax: Triticum aestivum, foliar, read-out: Activity (%) [10^-4mol.l^-1 KTHP = 100%]
Protocol: Seeds of winter wheat, Triticum aestivum cv. Hereward, were washed under running water for 24 hours and then sown on vermiculite soaked with the Knop's solution. They were placed in the grow chamber at 25 °C with a 16/8 h light period at 50 μmol.m^-2.s^-1. After 7 days, the first leaf was fully developed and the second leaf had started to grow. A tip section of the first leaf, approximately 35 mm long, was removed from 5 seedlings and trimmed slightly to a combined weight of 100 mg. The basal ends of the five leaf tips were placed in the wells of a microtiter polystyrene plate containing 150 μl of the solution of the tested compound each. The entire plate was inserted into a plastic box lined with paper tissues soaked with distilled water to prevent leaf sections from drying out. […] The absorbance of the extract was recorded at 665 nm. In addition, chlorophyll extracts from fresh leaves and leaf tips incubated in deionised water were measured. From the obtained data, the concetration with the highest activity was selected for each compound tested. Relative activity of the compound at this concentration was calculated (Table 7). […] The values shown are means of five replicates and the whole experiment was repeated twice. The compounds to be tested were dissolved in dimethylsulfoxide (DMSO) and the solution brought up to 10^-3 M with distilled water. […] The compounds listed in Table 7 can be divided into 2 groups. The first group contains "classical 6,9-disubstituted purines (KTHP as a control)" known in prior art. […] Table 9: […]

[4] = Calcein AM cytotoxicity assay, BJ cells; details: human; for CC50 at 72 h: bj fibroblasts
Protocol: as §1, §2

[5] = Calcein AM cytotoxicity assay, B10A.4 cells; details: mouse; for CC50 at 72 h: b10a.4 macrophages
Protocol: as §1, §2

[6] = tested on: Zea mays seedlings; experiment: Effect on development of Zea mays seedlings (hydroponic); format: in vivo, Zea mays cv. CELLUX; details: for Root dry mass (%) [4 x 10^-8 mol.l^-1 Kin = 100%] / Shoot dry mass (%) [10^-6 mol.l^-1 Kin = 100%]: at concentration with highest activity
Protocol: Maize seeds (Zea mays cv. CELLUX) were imbibed in tap water and germinated on a wetted filter paper. After 3 days, the germinated seedlings were transferred to aerated hydroponic tanks filled with Hoagland's nutrient solution. The plants were grown in an environmental chamber with 16 h light period (250 μE m^-2 s^-1) at 27°C and 8 h dark period at 20°C. Tested compounds diluted in DMSO were added to nutrient solution immediately when seedlings were nested in the tanks or after two additional days of cultivation. Control plants were grown in parallel with addition of corresponding amount of DMSO (up to 0.01%). Root and leaf tissues of ten plants were harvested at different time points after the application of the compounds, immediately frozen in liquid nitrogen and used for cytokinin content and transcript level analysis. Length of primary root and the first leaf were determined with ruler on sets of twelve plants, each cultivated in the independent tank (for every cytokinin application repeated ten times). Dry mass of root system and the aerial part was determined after cutting off the kernel and desiccation in dryer for two days at 60°C. […] Fig. 4) and up to 1 micromolar concentration when more seedlings were in the solution (approx. 50 seedlings per 1 liter; Fig. 5). […] Table 7: […]

[7] = Cytotoxicity IC50, B10A.4, first column headed B10A.4

Structure (SMILES)	CC50 at 72 h [2] [µM]	Concentration with highest activity [3]	Activity (%) [10^-4mol.l^-1 KTHP = 100%] [3]	CC50 at 72 h [4] [µM]	CC50 at 72 h [5, 7] [µM]	IC50 at 72 h [2] [µM]	Emax [3] [%]	IC50 at 72 h [4] [µM]	IC50 at 72 h [5, 7] [µM]	Concentration with highest activity [1]	Activity (%) [10^-8 mol.l^-1 Kin = 100%] [1]	Root dry mass (%) [4 x 10^-8 mol.l^-1 Kin = 100%] [6]	Shoot dry mass (%) [10^-6 mol.l^-1 Kin = 100%] [6]	Concentration with highest activity ([6]; root dry mass)	Concentration with highest activity ([6]; shoot dry mass)	further results
COc1cccc(CNc2ncnc3nc[nH]c23)c1 [6-(3-methoxybenzylamino)purine, reference compound]																root elongation and branching (in words) ([1]; already in micromolar concentration): significantly inhibits root elongation and branching
CC(C)=CCNc1nc(F)nc2c1ncn2C1CCCO1 (stereo not shown) [Compound 13]	> 167	10^-4 mol.l^-1	109.8 (± 13) %	> 167	> 167											CC50 at 72 h ([5]; Cytotoxicity IC50, B10A.4, second column headed B10A.4): > 167 µM; root elongation and lateral root proliferation (in words) ([6]; up to 1 µM concentration): does not inhibit root elongation and lateral root proliferation
Oc1cccc(CNc2nc(F)nc3c2ncn3C2CCCO2)c1 (stereo not shown) [Compound 15, 2-Fluoro-6-[(3-hydroxybenzyl)amino]-9-(tetrahydrofuran-2-yl)-9H-purine]						> 167	133	> 167	> 167	10^-5 mol.l^-1	24.8 (± 4) %	201.4 (± 22) %	124.3 (± 8) %	10^-7 mol.1^-1	10^-6 mol.1^-1	
COc1ccccc1CNc1nc(F)nc2c1ncn2C1CCCO1 (stereo not shown) [Compound 17, 2-Fluoro-6-[(2-methoxybenzyl)amino]-9-(tetrahydrofuran-2-yl)-9H-purine]						> 167	104	> 167	> 167	10^-5 mol.l^-1	30.7 (± 7) %	241.5 (± 19) %	139.8 (± 7) %	10^-7 mol.1^-1	10^-6 mol.1^-1	
COc1cccc(CNc2nc(F)nc3c2ncn3C2CCCO2)c1 (stereo not shown) [Compound 18]	> 167	10^-4 mol.l^-1	175.8 (± 10) %	> 167	> 167					10^-5 mol.l^-1	28.6 (± 2) %	240.6 (± 22) %	148.2 (± 8) %	10^-7 mol.1^-1	10^-6 mol.1^-1	
Oc1cc(Cl)cc(CNc2nc(F)nc3c2ncn3C2CCCO2)c1 (stereo not shown) [Compound 27]										10^-5 mol.l^-1	45.7 (± 6) %	194.5 (± 18) %	116.3 (± 7) %	10^-7 mol.1^-1	10^-6 mol.1^-1	
Oc1cc(F)cc(CNc2nc(F)nc3c2ncn3C2CCCO2)c1 (stereo not shown) [Compound 28]										10^-5 mol.l^-1	49.3 (± 9) %	190.2 (± 20) %	111.8 (± 6) %	10^-7 mol.1^-1	10^-6 mol.1^-1	
Oc1ccc(CNc2nc(F)nc3c2ncn3C2CCCO2)o1 (stereo not shown) [Compound 55]	> 167	10^-4 mol.l^-1	101 (± 17) %	> 167	> 167											
Cc1ccc(CNc2nc(F)nc3c2ncn3C2CCCCO2)o1 (stereo not shown) [Compound 60, 2-Fluoro-6-[(5-methylfurfuryl)amino]-9-(tetrahydro-2H-pyran-2-yl)-9H-purine]						> 167	123	> 167	> 167							
COc1ccc(CNc2nc(F)nc3c2ncn3C2CCCCO2)o1 (stereo not shown) [Compound 63]	> 167	10^-4 mol.l^-1	97 (± 5) %	> 167	> 167											
Oc1ccc(CNc2nc(F)nc3c2ncn3C2CCCCO2)cc1 (stereo not shown) [Compound 66, 2-Fluoro-6-[(4-hydroxybenzyl)amino]-9-(tetrahydro-2H-pyran-2-yl)-9H-purine]						> 167	74	> 167	> 167							
COc1ccc(CNc2nc(F)nc3c2ncn3C2CCCCO2)cc1 (stereo not shown) [Compound 68, 2-Fluoro-6-[(4-methoxybenzyl)amino]-9-(tetrahydro-2H-pyran-2-yl)-9H-purine]						> 167	155	> 167	> 167				118.6 (± 9) %		10^-6 mol.1^-1	
CC(C)=CCNc1nc(F)nc2c1ncn2C1CCCCO1 (stereo not shown) [Compound 69]	142	10^-4 mol.l^-1	108 (± 13) %	153	146											
C/C(=C\CNc1nc(F)nc2c1ncn2C1CCCCO1)CO (stereo not shown) [Compound 70]	> 167	10^-4 mol.l^-1	126 (± 12) %	> 167	> 167											

Source: patent EP4178959B1, “NITROGEN HETEROCYCLIC CYTOKININ DERIVATIVES, COMPOSITIONS CONTAINING THESE DERIVATIVES AND USE THEREOF” (Univerzita Palackého v Olomouci, priority 2020, dated 2022)
